The source of these data is ChEMBL document CHEMBL4219114, “Aralkyl selenoglycosides and related selenosugars in acetylated form activate protein phosphatase-1 and -2A” (Bioorg Med Chem, 2018).

Active and inactive are the calls of the source. The rule behind the calls is not given here.

Data set [1] concerns HeLa. The data set is described as follows: Cytotoxicity against human HeLa cells assessed as reduction in cell viability at >200 uM after 24 hrs by Alamar blue assay. The format is functional, cell-based.
Data set [2] concerns HeLa. The data set is described as follows: Activation of PP1 catalytic subunit/PP2A catalytic subunit in human HeLa cells using [32P]MLC20 as substrate pretreated for 1 hr followed by substrate addition measured after 30 secs by scintillation counting method. Format: cell-based.
For data set [3], the species on record is Oryctolagus cuniculus. Briefly: Activation of rabbit skeletal muscle PP1 catalytic subunit at 19 to 395 uM using [32P]MLC20 as substrate pretreated for 10 mins followed by substrate addition measured after 10 mins by scintillation counting method relative to control.
The species entered for data set [4] is Oryctolagus cuniculus. The data set is described as follows: Activation of rabbit skeletal muscle PP2A catalytic subunit at 19 to 395 uM using [32P]MLC20 as substrate pretreated for 10 mins followed by substrate addition measured after 10 mins by scintillation counting method relative to control.
Data set [5] in a line: Activation of rabbit skeletal muscle PP1 catalytic subunit using [32P]MLC20 as substrate pretreated for 10 mins followed by substrate addition measured after 10 mins by scintillation counting method relative to control. More on the design: species or system Oryctolagus cuniculus.
Data set [6] can be described thus: Activation of rabbit skeletal muscle PP2A catalytic subunit using [32P]MLC20 as substrate pretreated for 10 mins followed by substrate addition measured after 10 mins by scintillation counting method relative to control. More on the design: species or system Oryctolagus cuniculus.
Data set [7] can be described thus: Inhibition of rabbit skeletal muscle PP1 catalytic subunit at 19 to 395 uM using [32P]MLC20 as substrate pretreated for 10 mins followed by substrate addition measured after 10 mins by scintillation counting method. More on the design: species or system Oryctolagus cuniculus.
Data set [8] in a line: Inhibition of rabbit skeletal muscle PP2A catalytic subunit at 19 to 395 uM using [32P]MLC20 as substrate pretreated for 10 mins followed by substrate addition measured after 10 mins by scintillation counting method relative to control. More on the design: species or system Oryctolagus cuniculus.
The species entered for data set [9] is Oryctolagus cuniculus. Briefly: Activation of rabbit skeletal muscle PP1 catalytic subunit at 395 uM using [32P]MLC20 as substrate pretreated for 10 mins followed by substrate addition measured after 10 mins in presence of 10 to 25 uM MYPT1 (23 to 38 residues) peptide by scintillation counting method.
The species named for data set [10] is Oryctolagus cuniculus. The data set is described as follows: Activation of rabbit skeletal muscle PP2A catalytic subunit at 395 uM using [32P]MLC20 as substrate pretreated for 10 mins followed by substrate addition measured after 10 mins in presence of 10 uM MYPT1 (23 to 38 residues) peptide by scintillation counting method relative to control.
Data set [11] addresses Serine/threonine-protein phosphatase PP1-beta catalytic subunit (Homo sapiens) (UniProt P62140). The data set is described as follows: Binding affinity to full length recombinant human N-terminal His6-tagged PP1cdelta expressed in Escherichia coli M15 assessed as inhibition of protein interaction with GST-tagged MYPT1 at 10 to 50 uM by surface plasmon resonance method.
In data set [12] the test system is HeLa. The data set is described as follows: Activation of PP1 catalytic subunit/PP2A catalytic subunit in human HeLa cells at >100 uM using [32P]MLC20 as substrate pretreated for 1 hr followed by substrate addition measured after 30 secs by scintillation counting method. Format: cell-based.
Data set [13] has as its system HeLa. Briefly: Activation of PP1 catalytic subunit/PP2A catalytic subunit in human HeLa cells at 395 uM using [32P]MLC20 as substrate pretreated for 1 hr followed by substrate addition measured after 30 secs by scintillation counting method. Format: cell-based.

Sequence of Serine/threonine-protein phosphatase PP1-beta catalytic subunit (Homo sapiens) (P62140 whole entry): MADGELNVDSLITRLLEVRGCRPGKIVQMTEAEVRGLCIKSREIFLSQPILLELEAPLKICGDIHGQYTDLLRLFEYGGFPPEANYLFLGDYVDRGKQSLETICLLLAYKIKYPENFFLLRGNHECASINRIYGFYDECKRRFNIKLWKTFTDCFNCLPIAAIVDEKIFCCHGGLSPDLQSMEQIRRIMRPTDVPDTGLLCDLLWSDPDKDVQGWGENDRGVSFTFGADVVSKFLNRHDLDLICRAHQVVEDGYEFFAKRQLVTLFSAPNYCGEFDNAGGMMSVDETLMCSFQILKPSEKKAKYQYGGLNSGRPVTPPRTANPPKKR

Turning to `OC[C@H]1O[C@@H]([Se]Cc2ccccc2C(F)(F)F)[C@H](O)[C@@H](O)[C@@H]1O`, the outcome in the data set with HeLa [1] was Active. Moreover, the result in the data set with HeLa [2], in the data set listed under Oryctolagus cuniculus [3] and in the data set filed under Oryctolagus cuniculus [4] was inactive.

On to `CC(=O)OC[C@H]1O[C@@H]([Se]CCc2ccccc2)[C@H](OC(C)=O)[C@@H](OC(C)=O)[C@@H]1OC(C)=O`, for which the EC50 in data set [5] came out at 171 µM; in data set [6], 104 µM. Further, the fold change (FC) in the data set listed under Oryctolagus cuniculus [3] and in the data set listed under Oryctolagus cuniculus [4] was 4 each time.

For `CC(=O)OC[C@H]1O[C@@H]([Se]c2ccc([N+](=O)[O-])cn2)[C@H](OC(C)=O)[C@@H](OC(C)=O)[C@@H]1OC(C)=O`, the “inhibition (INH)” value in data set [7] and in data set [8] was “Active” throughout. In addition, the result in the data set listed under Oryctolagus cuniculus [3] and in the data set listed under Oryctolagus cuniculus [4] was inactive.

Turning to `CC(=O)OC[C@H]1O[C@@H]([Se]Cc2ccccc2C(F)(F)F)[C@H](OC(C)=O)[C@@H](OC(C)=O)[C@@H]1OC(C)=O`, the outcome in the data set filed under Oryctolagus cuniculus [9] was inactive. The result (in the data set filed under Oryctolagus cuniculus [10]; in the data set on HeLa [1]; in [11]; in the data set filed under Oryctolagus cuniculus [3]; in the data set filed under Oryctolagus cuniculus [4]; in the data set with HeLa [12]) was Active. Also, the figures for the EC50 in [5] and in data set [6] were 233 µM and 83.5 µM, respectively.

For the compound `CC(=O)OC[C@H]1O[C@@H]([Se]Cc2ccc([N+](=O)[O-])cc2)[C@H](OC(C)=O)[C@@H](OC(C)=O)[C@@H]1OC(C)=O`, the “inhibition (INH)” value in data set [7] is “Active”. Moreover, the outcome in the data set listed under Oryctolagus cuniculus [3] and in the data set listed under Oryctolagus cuniculus [4] was inactive.

Turning to `CC(=O)OC[C@H]1O[C@@H]([Se]C(=O)c2ccc(C)cc2)[C@H](OC(C)=O)[C@@H](OC(C)=O)[C@@H]1OC(C)=O`, the “inhibition (INH)” value in data set [7] and in data set [8] was “Active” in each case. In addition, the result in the data set filed under Oryctolagus cuniculus [3] and in the data set filed under Oryctolagus cuniculus [4] was Active.

Regarding `CC(=O)OC[C@H]1O[C@@H]([Se]C(=O)c2ccccc2)[C@H](OC(C)=O)[C@@H](OC(C)=O)[C@@H]1OC(C)=O`, the “inhibition (INH)” value in data set [7] and in [8] was “Active” each time. In addition, in the data set listed under Oryctolagus cuniculus [3], the fold change (FC) came out at 2. The result in the data set filed under Oryctolagus cuniculus [4] was inactive.

As to `OC[C@H]1O[C@@H]([Se]Cc2ccccc2)[C@H](O)[C@@H](O)[C@@H]1O`, the outcome with HeLa [1] was Active. The outcome with HeLa [2], in the data set listed under Oryctolagus cuniculus [3] and in the data set listed under Oryctolagus cuniculus [4] was inactive.

Consider `CC(=O)OC[C@H]1O[C@@H]([Se]Cc2ccc(Br)cc2)[C@H](OC(C)=O)[C@@H](OC(C)=O)[C@@H]1OC(C)=O`, for which the outcome in the data set filed under Oryctolagus cuniculus [9] was inactive. Further, the outcome (in the data set filed under Oryctolagus cuniculus [10]; in the data set on HeLa [13]; in data set [11]; in the data set listed under Oryctolagus cuniculus [3]; in the data set listed under Oryctolagus cuniculus [4]) was Active. The results for the EC50 in data set [5] and in [6] were 108 µM and 119 µM, respectively.

With `CC(=O)OC[C@H]1O[C@@H]([Se]c2ccc([N+](=O)[O-])cc2[N+](=O)[O-])[C@H](OC(C)=O)[C@@H](OC(C)=O)[C@@H]1OC(C)=O`, the “inhibition (INH)” value in data set [7] and in data set [8] was “Active” in each case. The outcome in the data set filed under Oryctolagus cuniculus [3] and in the data set filed under Oryctolagus cuniculus [4] was inactive.

`COc1ccc(C[Se][C@@H]2O[C@H](COC(C)=O)[C@@H](OC(C)=O)[C@H](OC(C)=O)[C@H]2OC(C)=O)cc1`: the EC50 in data set [5] came to 222 µM; in data set [6] it was 119 µM. In addition, the result in the data set listed under Oryctolagus cuniculus [3] and in the data set filed under Oryctolagus cuniculus [4] was Active.

As for `CC(=O)N[C@@H]1[C@@H](OC(C)=O)[C@H](OC(C)=O)[C@@H](COC(C)=O)O[C@H]1[Se]c1ccc([N+](=O)[O-])cn1`, the “inhibition (INH)” value in data set [7] and in [8] was “Active” each time. For the same compound, the outcome in the data set listed under Oryctolagus cuniculus [3] and in the data set filed under Oryctolagus cuniculus [4] was inactive.

On to `CC(=O)OC[C@H]1O[C@@H]([Se]C(=O)c2ccc(Cl)cc2)[C@H](OC(C)=O)[C@@H](OC(C)=O)[C@@H]1OC(C)=O`, for which the “inhibition (INH)” value in data set [7] and in [8] was “Active” each time. For the same compound, the outcome in the data set listed under Oryctolagus cuniculus [3] and in the data set listed under Oryctolagus cuniculus [4] was Active.

On to `CC(=O)N[C@@H]1[C@@H](OC(C)=O)[C@H](OC(C)=O)[C@@H](COC(C)=O)O[C@H]1[Se]C(=O)c1ccc(C)cc1`, for which the “inhibition (INH)” value in data set [7] and in data set [8] was “Active” throughout. Besides, the outcome in the data set filed under Oryctolagus cuniculus [3] and in the data set listed under Oryctolagus cuniculus [4] was Active.

Take `CC(=O)OC[C@H]1O[C@@H]([Se]Cc2ccccc2)[C@H](OC(C)=O)[C@@H](OC(C)=O)[C@@H]1OC(C)=O`: the outcome with HeLa [1], in the data set filed under Oryctolagus cuniculus [3] and in the data set filed under Oryctolagus cuniculus [4] was Active.

On to `CC(=O)OC[C@H]1O[C@@H]([Se]c2ccccc2)[C@H](OC(C)=O)[C@@H](OC(C)=O)[C@@H]1OC(C)=O`, for which the EC50 is 291 µM in data set [5] and 84.8 µM in data set [6]. Further, the fold change (FC) in the data set filed under Oryctolagus cuniculus [3] and in the data set filed under Oryctolagus cuniculus [4] was 4 throughout.
